The values below come from ChEMBL document CHEMBL1136608, “Azaindoles: moderately basic P1 groups for enhancing the selectivity of thrombin inhibitors” (Bioorg Med Chem Lett, 2003).

The species named for one data set is Homo sapiens. Put plainly: In vitro concentration required to double the human activated partial thromboplastin time (2x APTT). The format is functional.
Another data set deals with Serine protease 1 (Homo sapiens, UniProt P07477). Kind of data set: Inhibition of Trypsin.
Data set [1] can be described thus: Area under curve was determined in dog after oral administration at 1 mg/kg. The format is ADME, organism-based, Canis lupus familiaris. Also on record: dose 1 mg/kg, route oral. Particulars: in vivo.
Data set [2] in a line: Half-life in dog after oral administration at 1 mg/kg. In kind it is ADME, organism-based, Canis lupus familiaris. More on the design: dose 1 mg/kg, route oral. Particulars: in vivo.
Data set [3] in a line: Cmax in dog after oral administration at 1 mg/kg. In kind it is ADME, organism-based, Canis lupus familiaris. More on the design: dose 1 mg/kg, route oral. Particulars: in vivo.
In another data set the target is Prothrombin (Homo sapiens, UniProt P00734). Put plainly: Inhibition of Thrombin.
A further data set concerns Canis familiaris. Put plainly: Cmax in dog after oral administration at 1 mg/kg; Below the level of quantitation. Particulars: in vivo. More on the design: dose 1 mg/kg, route oral. In kind it is ADME, organism-based, Canis lupus familiaris.

Some results are limits rather than exact numbers.

Chain of Serine protease 1 (P07477 whole entry): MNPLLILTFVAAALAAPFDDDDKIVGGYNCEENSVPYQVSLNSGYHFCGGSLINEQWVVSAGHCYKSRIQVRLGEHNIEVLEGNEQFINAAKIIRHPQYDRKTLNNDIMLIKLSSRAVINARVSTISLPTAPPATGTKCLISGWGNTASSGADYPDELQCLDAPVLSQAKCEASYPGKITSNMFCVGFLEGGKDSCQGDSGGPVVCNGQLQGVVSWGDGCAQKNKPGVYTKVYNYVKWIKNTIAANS

Take `Cc1cnc(NCCc2ccccn2)c(=O)n1CC(=O)NCc1c[nH]c2nccc-2c1`: the Concentration in the data set filed under Homo sapiens was 0.95 µM.

For orientation: Ki means a measure of affinity in units of concentration, obtained from inhibition or displacement. A high value points to lower affinity. For the compound `Cc1cnc(NCCc2ccccc2)c(=O)n1CC(=O)NCc1ccc2[nH]ccc2n1`, at Serine protease 1, the Ki is > 100 µM.

Regarding `Cc1cnc(NCCc2ccccc2)c(=O)n1CC(=O)NCc1cnc2[nH]ccc2c1`, the Ki at Serine protease 1 is > 100 µM.

Compound `Cc1cnc(NCCc2ccccc2)c(=O)n1CC(=O)NCc1ccc2[nH]cnc2c1` displayed a Ki at Serine protease 1 of 2 µM.

By AUC is commonly meant the area under the concentration-time curve, a measure of exposure. A high value points to more exposure. As usually defined, the half-life is the time needed for the level to fall by half in the phase considered. Broadly, the Cmax is the highest concentration seen after dosing. The compound `Cc1cnc(NCCc2ccccn2)c(=O)n1CC(=O)NCc1cnc2[nH]ccc2c1` gave an AUC in data set [1] of 9.1 µM·h. The compound further had a half-life in data set [2] of 2.42 h. This compound also displayed a Cmax in data set [3] of 2100 nM. Besides, the Ki stood at 0.0066 µM at Prothrombin and 140 µM on Serine protease 1.

In turn, `Cc1nc(N)ccc1CNC(=O)Cn1c(C)cnc(NCCc2ccccc2)c1=O` [L-375378] returned an exposure (AUC) in data set [1] of 23.1 µM·h. The half-life in data set [2] is 3.18 h. The same compound gave a maximum concentration (Cmax) in data set [3] of 5370 nM. In the data set filed under Homo sapiens, the Concentration came out at 0.41 µM.

Consider `Cc1cnc(NCCc2ccccc2)c(=O)n1CC(=O)NCc1cc2cc[nH]c2cn1`, for which the AUC in data set [1] was determined as 15.2 µM·h. In addition, the half-life in data set [2] was 3.6 h. The Cmax in data set [3] came out at 2690 nM. The Concentration in the data set listed under Homo sapiens stood at 2.63 µM. Moreover, the Ki on Serine protease 1 was 95 µM.

The compound `Cc1cnc(NCCc2ccccn2)c(=O)n1CC(=O)NCc1ccc2[nH]ccc2c1` gave a Ki on Serine protease 1 of 290 µM.

For the compound `Cc1cnc(NCCc2ccccc2)c(=O)n1CC(=O)NCc1ccc2nccn2c1`, the Ki at Prothrombin stood at 0.14 µM; at Serine protease 1, 100 µM.

`Cc1cnc(NCCc2ccccc2)c(=O)n1CC(=O)NCc1ccc2nccn2c1C` came in with a Ki at Serine protease 1 of 6.8 µM.

Regarding `Cc1cnc(NCCc2ccccn2)c(=O)n1CC(=O)NCc1ccc2[nH]ccc2n1`, the Cmax result with Canis familiaris is “Below the level of quantitation”. This compound displayed a Concentration in the data set filed under Homo sapiens of 0.8 µM. The Ki on Serine protease 1 is > 1000 µM.

As to `Cc1cnc(NCCc2ccccc2)c(=O)n1CC(=O)NCc1ccc2cc[nH]c2c1`, the results for the Ki at Prothrombin and on Serine protease 1 were 0.83 µM and > 100 µM, respectively.

In the case of `Cc1cnc(NCCc2ccccn2)c(=O)n1CC(=O)NCc1cc2cc[nH]c2cn1`, in data set [1], the AUC is 0.17 µM·h. In addition, the peak level in data set [3] (Cmax) was 180 nM. In the data set filed under Homo sapiens, this compound yielded a Concentration of 0.4 µM. Further, the Ki at Serine protease 1 was determined as 200 µM.

For the compound `Cc1cnc(NCCc2ccccc2)c(=O)n1CC(=O)NCc1ccc2[nH]ccc2c1`, the Ki at Serine protease 1 was > 100 µM.

`Cc1cnc(NCCc2ccccc2)c(=O)n1CC(=O)NCc1ccn2ccnc2c1`: the Ki at Prothrombin turned out to be 0.27 µM; at Serine protease 1, 120 µM.
